From US7825226B2, “Glycoprotein synthesis” (The Scripps Research Institute, priority 2002, dated 2010)

How the values were obtained:
[1] = tested on: E. coli DH10B cells; assay: growth rate of cells grown with the unnatural amino acid; conditions: 1 mM; cells transformed with mutRNACUA^Tyr, LW1RS and Z domain gene (Lys7TAG)
Description: E. coli DH10B cells cotransformed with pLEIZ and pBK-LW1RS were grown in minimal media containing 1% glycerol and 0.3 mM leucine (GMML media) with 25 μg/mL kanamycin, 34 μg/mL of chloramphenicol, and 1.0 mM p-acetyl-(±)-phenylalanine.
Cells transformed with the mutRNACUA^Tyr, LW1RS and Z domain gene (Lys7TAG) were grown in the presence of 1 mM p-acetyl-(±)-phenylalanine.

[2] = tested on: Bandeiraea simplicifolia II (BSII); assay: ELISA-like assay of binding of a GlcNAc-specific lectin; conditions: 200 ng immobilized protein, absorbance at 405 nm
Description: Several additional experiments were performed to further characterize the mutant myoglobin. First, an ELISA-like assay was used to analyze the binding of a GlcNAc-specific lectin, Bandeiraea simplicifolia II (BSII) (see, e.g., S. Ebisu, et al., (1978), Carbohydr. Res. 61:129), to wild-type myoglobin and glyco-myoglobin. See FIG. 6, Panel A. FIG. 6, Panel A illustrates binding of a GlcNAc-specific lectin, Banderiraea simplicifolia II (BSII), to wild-type myoglobin and glycomyoglobin. A405 values are shown for wild-type myoglobin, glycomyoglobin, and negative control (no lectin added). Gly4→Compound A mutant myoglobin (200 ng) and wild type myoglobin (200 ng) were immobilized in microtiter plate wells and subsequently incubated with biotinylated BSII and streptavidin-alkaline phosphatase conjugate. Wells were incubated with p-nitrophenyl phosphate and monitored by measuring the absorbance at 405 nm. The two forms of myoglobin were immobilized in microtiter plate wells and then incubated with biotinylated BSII, streptavidin-alkaline phosphatase conjugate, and p-nitrophenyl phosphate, respectively.
(§1) Expression and characterization of mutant myoglobin. […] Proteins were analyzed by 12% SDS-PAGE and silver-stained. […]

[3] = target: T1, bovine milk galactosyltransferase (Bos taurus, UniProt P08037); assay: on-blot galactosyltransferase labeling with UDP-[H^3]galactose; type: biochemical; conditions: 1 μg protein on PVD membrane, 24 hours at room temperature
T1 construct: from tissue; host or cells: bovine milk
T1 sequence (P08037 79-402 limits assumed): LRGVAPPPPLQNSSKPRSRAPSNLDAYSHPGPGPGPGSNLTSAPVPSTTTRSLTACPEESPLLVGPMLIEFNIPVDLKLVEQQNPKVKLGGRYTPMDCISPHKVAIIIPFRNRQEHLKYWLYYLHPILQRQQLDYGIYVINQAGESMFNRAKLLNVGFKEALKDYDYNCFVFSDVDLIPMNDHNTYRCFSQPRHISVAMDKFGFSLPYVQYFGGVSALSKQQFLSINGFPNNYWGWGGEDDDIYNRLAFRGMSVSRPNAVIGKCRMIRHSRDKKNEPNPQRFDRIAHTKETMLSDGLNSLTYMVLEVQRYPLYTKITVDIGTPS
Text: We also investigated whether the O-GlcNAc-serine residue in myoglobin could be selectively modified with a galactosyltransferase. Beta-1,4-galactosyltransferase is known to transfer galactose (Gal) from the sugar nucleotide UDP-Gal to the 4 position of an N-acetylglucosamine (GlcNAc) to form Galβ1,4GlcNAc. To determine if the O-glycosylated myoglobin can be modified with UDP-Gal, both wild-type and O-glycosylated myoglobin were resolved by SDS-PAGE and transferred to a PVD membrane. The membrane was then incubated with bovine milk galactosyltransferase and radioactive UDP-[H^3]-galactose at room temperature for 24 hours. See, e.g., K. Kamemura, et al., (2002), J. Biol. Chem. 277:19229. Incorporation of [H^3]-Gal was monitored by exposing the membrane to X-ray film. […] See FIG. 6, Panel B. FIG. 6, Panel B illustrates on-blot galactosyltransferase labeling glycomyoglobin with UDP-[H^3]galactose. Wild type myoglobin (1 μg) and Gly4→Compound A mutant myoglobin (1 μg) were resolved by 12% SDS-PAGE and transferred to a PVD membrane. The membrane was then treated with bovine milk galactosyltransferase (1 U), UDP-[H^3]galactose (0.5 μCi) and calf intestinal alkaline phosphatase (1 U) for 24 hours at room temperature. […]
as §1

Molecule | effect on growth rate of cells [1] | lectin binding signal (A405) [2] | incorporation of [H^3]-Gal (X-ray film) [3]
CC(=O)c1ccc(CC(N)C(=O)O)cc1 (racemic) [p-acetyl-(±)-phenylalanine] | did not affect the growth rate of cells | – | –
wild-type myoglobin: wild-type myoglobin used for comparison | – | signal equivalent to negative control wells | no detectable signal
